One assay has as its target T1, α-1B adrenoreceptor (Rattus norvegicus, UniProt P15823).
T1 construct: from tissue; host or cells: rat spleen
T1 sequence (P15823 1-515): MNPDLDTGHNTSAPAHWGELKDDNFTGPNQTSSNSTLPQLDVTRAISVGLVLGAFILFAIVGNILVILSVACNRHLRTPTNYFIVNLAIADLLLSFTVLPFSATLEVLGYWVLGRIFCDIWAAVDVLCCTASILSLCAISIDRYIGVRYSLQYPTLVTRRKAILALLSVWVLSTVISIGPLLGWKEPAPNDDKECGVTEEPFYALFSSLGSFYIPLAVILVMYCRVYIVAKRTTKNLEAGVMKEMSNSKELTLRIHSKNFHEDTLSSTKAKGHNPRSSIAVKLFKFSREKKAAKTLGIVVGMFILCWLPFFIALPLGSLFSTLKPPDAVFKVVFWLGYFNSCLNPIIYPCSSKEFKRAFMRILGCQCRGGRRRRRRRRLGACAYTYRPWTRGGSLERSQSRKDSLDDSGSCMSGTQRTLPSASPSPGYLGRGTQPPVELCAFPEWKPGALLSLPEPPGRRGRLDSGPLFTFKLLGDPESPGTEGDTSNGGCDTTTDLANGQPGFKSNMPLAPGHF
Kind of assay: cell-based. The note with it: phenylephrine-induced contraction, Schild plot; for Kb: read-out: In Vitro Characterization (pA2) Rat Spleen (converted). The source says:
(§1) Functional assays indicative of pharmacologically defined α-1 adrenoreceptors were used to further characterize compounds. Inhibition of phenylephrine (PE)-induced contraction of canine prostate smooth muscle can be correlated with α-1A adrenoreceptor activation. […] For each of these models, agonist dose response curves were repeated against increasing concentrations of test agent to derive a Schild plot [log ([…]) against log (molarity of test agent)] to determine the pA2.

A further assay concerns the target T2, α-1A adrenoreceptor (Rattus norvegicus, UniProt P43140).
T2 sequence (P43140 1-466): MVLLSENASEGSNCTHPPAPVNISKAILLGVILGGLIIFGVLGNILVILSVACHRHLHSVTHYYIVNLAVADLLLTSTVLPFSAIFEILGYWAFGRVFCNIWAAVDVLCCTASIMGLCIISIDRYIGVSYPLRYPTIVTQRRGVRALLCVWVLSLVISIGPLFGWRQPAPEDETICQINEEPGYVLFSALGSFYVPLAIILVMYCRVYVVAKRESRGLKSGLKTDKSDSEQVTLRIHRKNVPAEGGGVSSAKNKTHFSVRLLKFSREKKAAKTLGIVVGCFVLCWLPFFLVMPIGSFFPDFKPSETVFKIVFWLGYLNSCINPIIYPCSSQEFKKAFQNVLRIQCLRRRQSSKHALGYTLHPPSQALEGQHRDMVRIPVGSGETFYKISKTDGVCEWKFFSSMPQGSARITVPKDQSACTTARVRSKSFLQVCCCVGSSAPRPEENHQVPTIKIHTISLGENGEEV
The assay can be described thus: cell-based. The conditions noted are these: phenylephrine-induced contraction, Schild plot; for Kb: read-out: In Vitro Characterization (pA2) Rat Vas (converted).
Description: as §1

For assay [1], the target named is T3, α-1A adrenoreceptor (rat submaxillary gland) (Rattus norvegicus, UniProt P43140).
T3 sequence (P43140 1-466): T2 sequence (P43140 1-466)
Kind of assay: biochemical. It counts as binding. In short, it runs like this: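 Membranes were prepared from rat submaxillary glands as the α-1A adrenoreceptor source. Competition binding followed Greengrass and Bremner, with bound radioligand measured by scintillation counting.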

[2] abbreviates: [3H]-prazosin radioligand, rat submaxillary gland membranes, read-out: Radioligand Binding (Ki, nM) 1A (Rat).

Molecules are shown by their SMILES. Structures can show the parent of a compound that is named as a salt. Where two headings read alike, the source gives them in different places.

Usually Ki stands for a dissociation constant, usually derived from enzyme kinetics or from competition with a known ligand. Take `O=c1[nH]c2c(sc3cccnc32)c(=O)n1CCCCN1C[C@@H]2COc3ccccc3[C@@H]2C1` (racemic) [Example 70, 3-[4-((±)-cis-1,2,3,3a,4,9b-hexahydro-[1]-benzopyrano[3,4-c]pyrrol-2-yl)butyl]-pyrido[2',3':4,5]thieno[3,2-d]pyrimidine-2,4(1H,3H)-dione dihydrochloride]: the Kb at α-1B adrenoreceptor was 87.1 nM; at α-1A adrenoreceptor, 6.31 nM. Also, the inhibitory constant (Ki) in assay [1] (read-out: Radioligand Binding (Ki, nM) 1A (Rat)) came out at 0.17 nM.
For `COc1cc2[nH]c(=O)n(CCCCN3C[C@@H]4COc5ccccc5[C@@H]4C3)c(=O)c2cc1OC` (racemic) [Example 81, 3-[4-((±1-cis-1,2,3,3a,4,9b-hexahydro-[1]-benzopyrano[3,4-c]pyrrol-2-yl)butyl]-6,7-dimethoxy-quinazoline-2,4(1H,3H)-dione hydrochloride], at α-1B adrenoreceptor, the Kb was 38.9 nM. The inhibitory constant (Ki) in assay [1] (setting [2]) came out at 0.045 nM.
Regarding `COc1cnc2sc3c(=O)n(CCCCN4CC5COc6cccc(OC)c6[C@@H]5C4)c(=O)[nH]c3c2n1.Cl` (stereo in doubt) [Example 43, 3-[4-((3aS,9bR)-trans-9-Methoxy-1,2,3,3a,4,9b-hexahydro-[1]-benzopyrano[3,4-c]pyrrol-2-yl)butyl]-8-methoxy-pyrazino[2',3':4,5]thieno[3,2-d]pyrimidine-2,4(1H,3H)-dione hydrochloride], on α-1B adrenoreceptor, the “In Vitro Characterization (pA2) Rat Spleen” value came to 7.66. Moreover, the inhibitory constant (Ki) in assay [1] (setting [2]) is 0.114 nM.
As for `COc1cc2nc(N3CCN(C(=O)C4COc5ccccc5O4)CC3)nc(N)c2cc1OC` (stereo not shown) [Doxazosin, doxazosin, reference compound], at α-1B adrenoreceptor, the “In Vitro Characterization (pA2) Rat Spleen” value came out at 9.51. In addition, the “In Vitro Characterization (pA2) Rat Vas” value on α-1A adrenoreceptor is 8.69. This molecule also had a Ki in assay [1] of 0.423 nM.
With `COc1cccc2c1[C@@H]1CN(CCCCn3c(=O)[nH]c4c(sc5c(OC)ccnc54)c3=O)C[C@H]1CO2` [Example 17, 3-[4-((3aS,9bR)-trans-9-Methoxy-1,2,3,3a,4,9b-hexahydro-[1]-benzopyrano[3,4-c]pyrrol-2-yl)butyl]-6-methoxy-pyrido[2',3':4,5]thieno[3,2-d]pyrimidine-2,4(1H,3H)-dione dihydrochloride], the Kb at α-1B adrenoreceptor was 11 nM; at α-1A adrenoreceptor it was 0.112 nM. Also, in assay [1] (setting [2]), the inhibitory constant (Ki) amounted to 0.175 nM.
Regarding `COc1cccc2c1[C@@H]1CN(CCCCn3c(=O)[nH]c4c(sc5c(OC)ccnc54)c3=O)C[C@@H]1CO2` [Example 18, 3-[4-((3aR,9bR)-cis-9-Methoxy-1,2,3,3a,4,9b-hexahydro[1]-benzopyrano[3,4-c]pyrrol-2-yl)butyl]-6-methoxy-pyrido[2',3':4,5]thieno[3,2-d]pyrimidine-2,4(1H,3H)-dione dihydrochloride], the results for the Kb at α-1B adrenoreceptor and at α-1A adrenoreceptor were 19.5 nM and 0.741 nM, respectively. Further, in assay [1] (setting [2]), the Ki is 0.284 nM.
The matching figures for `COc1cccc2c1[C@@H]1CN(CCCCn3c(=O)[nH]c4c(sc5ccc(Cl)nc54)c3=O)C[C@H]1CO2` [Example 25, 3-[4-((3aS,9bR)-trans-9-Methoxy-1,2,3,3a,4,9b-hexahydro-[1]-benzopyrano[3,4-c]pyrrol-2-yl)butyl]-8-chloro-pyrido[2',3':4,5]thieno[3,2-d]pyrimidine-2,4(1H,3H)-dione dihydrochloride]: 2 nM, 0.12 nM and 0.061 nM.
As to `COc1cccc2c1[C@@H]1CN(CCCCn3c(=O)[nH]c4c(sc5ccncc54)c3=O)C[C@@H]1CO2` [Example 28, 3-[4-((3aR,9bR)-cis-9-Methoxy-1,2,3,3a,4,9b-hexahydro-[1]-benzopyrano[3,4-c]pyrrol-2-yl)butyl]-pyrido[3',4':4,5]thieno[3,2-d]pyrimidine-2,4(1H,3H)-dione dihydrochloride], the values for the Kb at α-1B adrenoreceptor and on α-1A adrenoreceptor were 4.37 nM and 0.407 nM, respectively. The Ki in assay [1] (setting [2]) turned out to be 0.273 nM.
Turning to `COc1cccc2c1[C@@H]1CN(CCCCn3c(=O)[nH]c4c(sc5cnccc54)c3=O)C[C@@H]1CO2` [Example 29, 3-[4-((3aR,9bR)-cis-9-Methoxy-1,2,3,3a,4,9b-hexahydro-[1]-benzopyrano[3,4-c]pyrrol-2-yl)butyl]-pyrido[4',3':4,5]thieno[3,2-d]pyrimidine-2,4(1H,3H)-dione dihydrochloride], the values for the Kb on α-1B adrenoreceptor and at α-1A adrenoreceptor were 12.3 nM and 0.437 nM, respectively. Further, the inhibition constant (Ki) in assay [1] (setting [2]) is 0.252 nM.
On the same counts, the results for `COc1ccc2sc3c(=O)n(CCCCN4C[C@@H]5COc6cccc(OC)c6[C@@H]5C4)c(=O)[nH]c3c2n1` [Example 30, 3-[4-((3aR,9bR)-cis-9-Methoxy-1,2,3,3a,4,9b-hexahydro-[1]-benzopyrano[3,4-c]pyrrol-2-yl)butyl]-8-methoxy-pyrido[2',3':4,5]thieno[3,2-d]pyrimidine-2,4(1H,3H)-dione hydrochloride] are 21.4 nM, 0.251 nM and 0.264 nM.
On the same counts, the results for `COc1cnc2sc3c(=O)n(CCCCN4C[C@@H]5COc6cccc(OC)c6[C@@H]5C4)c(=O)[nH]c3c2n1` [Example 31, 3-[4-((3aR,9bR)-cis-9-Methoxy-1,2,3,3a,4,9b-hexahydro-[1]-benzopyrano[3,4-c]pyrrol-2-yl)butyl]-8-methoxy-pyrazino[2',3':4,5]thieno[3,2-d]pyrimidine-2,4(1H,3H)-dione hydrochloride] are 14.1 nM, 0.229 nM and 0.224 nM.
On the same counts, the results for `COc1cccc2c1[C@@H]1CN(CCCCn3c(=O)[nH]c4c(sc5ncccc54)c3=O)C[C@@H]1CO2` [Example 34, 3-[4-((3aR,9bR)-cis-9-Methoxy-1,2,3,3a,4,9b-hexahydro-[1]-benzopyrano[3,4-c]pyrrol-2-yl)butyl]-pyrido[3',2':4,5]thieno[3,2-d]pyrimidine-2,4(1H,3H)-dione hydrochloride] are 7.59 nM, 0.589 nM and 0.474 nM.
As for `COc1cccc2c1[C@@H]1CN(CCCCn3c(=O)[nH]c4c(sc5ccnc(Cl)c54)c3=O)C[C@@H]1CO2` [Example 48, 3-[4-((3aR,9bR)-cis-9-Methoxy-1,2,3,3a,4,9b-hexahydro-[1]-benzopyrano[3,4-c]pyrrol-2-yl)butyl]-9-chloro-pyrido[3',4';4,5]thieno[3,2-d]pyrimidine-2,4(1H,3H)-dione hydrochloride], the Kb at α-1B adrenoreceptor was 39.8 nM. Besides, the Ki in assay [1] (setting [2]) was 0.475 nM.
On the same counts, the results for `COc1cccc2c1[C@@H]1CN(CCCCn3c(=O)[nH]c4c(sc5ccnc(OC)c54)c3=O)C[C@H]1CO2` [Example 49, 3-[4-((3aS,9bR)-trans-9-Methoxy-1,2,3,3a,4,9b-hexahydro-[1]-benzopyrano[3,4-c]pyrrol-2-yl)butyl]-9-methoxy-pyrido[3',4':4,5]thieno[3,2-d]pyrimidine-2,4(1H,3H)-dione fumarate] are 7.24 nM and 0.037 nM.
On the same counts, the results for `COc1cccc2c1[C@@H]1CN(CCCCn3c(=O)[nH]c4c(sc5c(Cl)nccc54)c3=O)C[C@H]1CO2` [Example 54, 3-[4-((3aS,9bR)-trans-9-Methoxy-1,2,3,3a,4,9b-hexahydro-[1]-benzopyrano[3,4-c]pyrrol-2-yl)butyl]-6-chloro-pyrido[4',3':4,5]thieno[3,2-d]pyrimidine-2,4(1H,3H)-dione] are 49 nM and 0.077 nM.

These data come from patent publication EP0942911B1, “BENZOPYRANOPYRROLE AND BENZOPYRANOPYRIDINE ALPHA-1 ADRENERGIC COMPOUNDS” (Abbott Laboratories, priority 1996, dated 1998).
